This test addresses T1, substance P receptor (Homo sapiens, UniProt P25103).
T1 construct: The receptor was prepared from human lymphoblast cells (IM-9); endogenous in cells; host or cells: IM-9 human lymphoblast cells (crude membrane preparation)
Briefly: Radioligand receptor binding inhibitory activity using receptor from human lymphoblast cells (IM-9), 125I-BHSP. The settings on record: human IM-9 cell receptor, 25° C., 30 minutes, pH 7.4, n=1. Here is the method:
Radioligand receptor binding inhibitory activity
Binding inhibitory activity using receptor from human lymphoblast cells (IM-9)
The method of A. Margaret "Molecular Pharmacology 42, p.458 (1992)" was modified and used. The receptor was prepared from human lymphoblast cells (IM-9). IM-9 cells (2×10^5 cells/ml) were inoculated and incubated for 3 days (one liter), which was then subjected to centrifuge for 5 minutes at 500×g to obtain cell pellets. The pellets were washed once with phosphate buffer (Flow Laboratories, CAT. No. 28-103-05), which were then crushed using Polytron.homogenizer "Kinematika, Germany" in 30 ml of 50 mM Tris-HCl buffer (pH 7.4) containing 120 mM sodium chloride, 5 mM potassium chloride, 2 μg/ml chymostatin, 40 μg/ml bacitracin, 5 μg/ml phosphoramidon, 0.5 mM phenylmethyl sulfonyl fluoride, 1 mM ethylenediamine tetra-acetic acid, which was subjected to centrifuge at 40,000×g for 20 minutes. The residue was washed twice with 30 ml of the above-mentioned buffer, which was then preserved frozen (-80° C.) as a specimen of the receptor.
The specimen was suspended in a reaction buffer (50 mM Tri-HCl buffer (pH 7.4), 0.02% bovine serum albumin, 1 mM phenylmethylsulfonyl fluoride, 2 μg/chymostatin, 40 μg/ml bacitracin, 3 mM manganese chloride) and 100 ul portion was the suspension was used in the reaction. After addition of the sample and ^125 I-BHSP (0.46 KBq), the reaction was allowed to proceed in 0.2 ml of reaction buffer at 25° C. for 30 minutes. The amount of nonspecific binding was determined by adding substance P at a final concentration of 2×10^-6 M. After the reaction, using a cell harvester (290 PHD, Cambridge Technology, Inc, U.S.A.), rapid filtration was carried out through a glass filter (GF/B, Whatman, U.S.A.) to stop the reaction. After washing three times with 250 ul of 50 mM of Tris-HCl buffer (pH 7.4) containing 0.02% bovine serum albumin, the radioactivity remaining on the filter was determined with a gamma counter. Before use, the filter was immersed in 0.1% polyethyleneimine for 24 hours and air-dried. […] (Radioligand means substance P labelled with ^125 I.) The number of this experiment is one.

The structures appear in SMILES notation.

T1 sequence (P25103 whole entry): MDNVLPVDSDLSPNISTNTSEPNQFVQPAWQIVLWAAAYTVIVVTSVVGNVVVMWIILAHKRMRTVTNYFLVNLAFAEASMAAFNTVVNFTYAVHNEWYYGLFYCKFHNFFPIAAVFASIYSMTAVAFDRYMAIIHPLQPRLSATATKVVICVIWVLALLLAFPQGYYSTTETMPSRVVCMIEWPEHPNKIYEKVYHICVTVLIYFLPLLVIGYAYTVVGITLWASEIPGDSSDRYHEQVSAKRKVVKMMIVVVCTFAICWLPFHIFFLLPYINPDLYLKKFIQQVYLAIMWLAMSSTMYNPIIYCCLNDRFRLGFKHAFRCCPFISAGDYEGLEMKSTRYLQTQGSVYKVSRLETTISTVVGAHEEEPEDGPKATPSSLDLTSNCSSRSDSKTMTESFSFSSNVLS

As for `COc1ccccc1CNC(=O)c1c(-c2ccc(F)cc2)c2cccnc2c(=O)n1C` [Example 3, 5-(4-Fluorophenyl)-7,8-dihydro-N-(2-methoxybenzyl)-7-methyl-8-oxo-6-pyrido[3,4-b]pyridinecarboxamide], the 50% inhibitory concentration (IC50) (in general, the concentration needed to halve the response being measured) was 14 nM.

In turn, `COc1ccccc1CN(C)C(=O)c1c(-c2ccc(F)cc2)c2cccnc2c(=O)n1C` [Example 4, 5-(4-Fluorophenyl)-7,8-dihydro-N-(2-methoxybenzyl)-N,7-dimethyl-8-oxo-6-pyrido[3,4-b]pyridinecarboxamide] showed an IC50 of 2.5 nM.

As to `CN(Cc1cc(C(F)(F)F)cc(C(F)(F)F)c1)C(=O)c1c(-c2ccc(F)cc2)c2cc(Cl)cnc2c(=O)n1C` [Example 6, N-[3,5-Bis(trifluoromethyl)benzyl]-3-chloro-5-(4-fluorophenyl)-7,8-dihydro-N, 7-dimethyl-8-oxo-6-pyrido[3,4-b]pyridinecarboxamide], the IC50 is 1.1 nM.

As to `CN(Cc1cc(C(F)(F)F)cc(C(F)(F)F)c1)C(=O)c1c(-c2ccc(F)cc2)c2cnccc2c(=O)n1C` [Example 9, N-[3,5-Bis(trifluoromethyl)benzyl]-4-(4-fluorophenyl)-1,2-dihydro-N, 2-dimethyl-1-oxo-3-pyrido[4,3-c]pyridine carboxamide], the IC50 was 1.2 nM.

Turning to `Cc1ccccc1-c1c(C(=O)N(C)Cc2cc(C(F)(F)F)cc(C(F)(F)F)c2)n(C)c(=O)c2cccnc12` [Example 10, N-[3,5-Bis(trifluoromethyl)benzyl]-5,6-dihydro-N, 6-dimethyl-8-(2-methylphenyl)-5-oxo-7-pyrido[4,3-b]pyridinecarboxamide], the IC50 stood at 33 nM.

Consider `CN(Cc1cc(C(F)(F)F)cc(C(F)(F)F)c1)C(=O)c1cnc2ccccc2c1-c1ccccn1` [Example 12, N-[3,5-Bis(trifluoromethyl)benzyl]-N-methyl-4-(2-pyridyl)-3-quinolinecarboxamide], for which the IC50 came to 2.8 nM.

As for `CN(Cc1cc(C(F)(F)F)cc(C(F)(F)F)c1)C(=O)c1c(-c2ccc(F)cc2)c2cscc2c(=O)n1C` [Example 18, N-[3,5-Bis(trifluoromethyl)benzyl]-7-(4-fluorophenyl)-4,5-dihydro-N, 5-dimethyl-4-oxo-6-thieno[3,4-c]pyridine carboxamide], the IC50 stood at 0.36 nM.

For the compound `CN(Cc1cc(C(F)(F)F)cc(C(F)(F)F)c1)C(=O)c1c(-c2ccc(F)cc2)c2ncccc2c(=O)n1C` [Example 19, N-[3,5-Bis(trifluoromethyl)benzyl]-8-(4-fluorophenyl)-5,6-dihydro-N, 6-dimethyl-5-oxo-7-pyrido[4,3-b]pyridine carboxamide], the IC50 amounted to 0.94 nM.

The compound `CN(Cc1cc(C(F)(F)F)cc(C(F)(F)F)c1)C(=O)c1c(-c2cccs2)c2ccccc2c(=O)n1C` [Example 21, N[3,5-Bis(trifluoromethyl)benzyl]-1,2-dihydro-N, 2-dimethyl-1-oxo-4-(2-thienyl)-3-isoquinolinecarboxamide] registered an IC50 of 2.5 nM.

`CN(Cc1cc(C(F)(F)F)cc(C(F)(F)F)c1)C(=O)c1cnc2sccc2c1-c1ccc(F)cc1` [Example 24, N[3,5-Bis(trifluoromethyl)benzyl]-4-(4-fluorophenyl)-N-methyl-5-thieno[2,3-b]pyridinecarboxamide] registered an IC50 of 0.2 nM.

`CN(Cc1cc(C(F)(F)F)cc(C(F)(F)F)c1)C(=O)c1c(-c2ccc(F)cc2)c2c(c(=O)n1C)CCCN2C` [Example 28, N-[3,5-Bis(trifluoromethyl)benzyl]-8-(4-fluorophenyl)-1,2,3,4,5,6-hexahydro-N, 1,6-trimethyl-5-oxo-7-pyrido [4,3-b]pyridinecarboxamide] showed an IC50 of 5 nM.

Turning to `CN(Cc1cc(C(F)(F)F)cc(C(F)(F)F)c1)C(=O)c1c(-c2ccc(F)cc2)c2ccc[n+](C)c2c(=O)n1C` [Example 29, 6-[N-[3,5-Bis(trifluoromethyl)benzyl]-N-methylaminocarbonyl]-5-(4-fluorophenyl)-7,8-dihydro-1,7-dimethyl-8-oxopyrido[3,4-b]pyridinium iodide], the IC50 is 0.6 nM.

For `CN(Cc1cc(C(F)(F)F)cc(C(F)(F)F)c1)C(=O)c1c(-c2ccc(F)cc2)c2c(c(=O)n1C)N(C)CCC2` [Example 30, N-[3,5-Bis(trifluoromethyl)benzyl]-5-(4-fluorophenyl)-1,2,3,4,7,8-hexahydro-N, 1,7-trimethyl-8-oxo-6-pyrido [3,4-b]pyridinecarboxamide], the IC50 worked out at 0.1 nM.

In turn, `CN(Cc1cc(C(F)(F)F)cc(C(F)(F)F)c1)C(=O)c1c(-c2ccc(F)cc2)c2cc[n+](C)cc2c(=O)n1C` [Example 31, 3-[N-[3,5-Bis(trifluoromethyl)benzyl]-N-methylaminocarbonyl]-4-(4-fluorophenyl)-1,2-dihydro-2,7-dimethyl-1-oxopyrido[3,4-c]pyridinium iodide] had an IC50 of 0.33 nM.

`CN1CCc2c(-c3ccc(F)cc3)c(C(=O)N(C)Cc3cc(C(F)(F)F)cc(C(F)(F)F)c3)n(C)c(=O)c2C1` [Example 32, N-[3,5-Bis(trifluoromethyl)benzyl]-4-(4-fluorophenyl)-1,2,5,6,7,8-hexahydro-N,2,7-trimethyl-1-oxo-3-pyrido[3,4-c]pyridinecarboxamide]: the 50% inhibitory concentration (IC50) was found to be 0.048 nM.

Consider `CN(Cc1cc(C(F)(F)F)cc(C(F)(F)F)c1)C(=O)c1c(-c2ccc(F)cc2)c2c[n+](C)ccc2c(=O)n1C` [Example 33, 3-[N-[3,5-Bis(trifluoromethyl)benzyl]-N-methylaminocarbonyl]-4-(4-fluorophenyl)-1,2-dihydro-2,6-dimethyl-1-oxopyrido[4,3-c]pyridinium iodide], for which the concentration for half-maximal inhibition (IC50) came out at 16 nM.

`CN1CCc2c(c(-c3ccc(F)cc3)c(C(=O)N(C)Cc3cc(C(F)(F)F)cc(C(F)(F)F)c3)n(C)c2=O)C1` [Example 34, N-[3,5-Bis(trifluoromethyl)benzyl]-4-(4-fluorophenyl)-1,2,5,6,7,8-hexahydro-N,2,6-trimethyl-1-oxo-3-pyrido [4,3-c]pyridinecarboxamide] gave an IC50 of 2.1 nM.

The compound `CN(Cc1cc(C(F)(F)F)cc(C(F)(F)F)c1)C(=O)c1c(-c2ccc(F)cc2)c2ccc(=O)n(C)c2c(=O)n1C` [Example 35, N-[3,5-Bis(trifluoromethyl)benzyl]-5-(4-fluorophenyl)-1,2,7,8-tetrahydro-N,1,7-trimethyl-2,8-dioxo-6-pyrido [3,4-b]pyridinecarboxamide] came in with an IC50 of 0.35 nM.

The compound `CN(Cc1cc(C(F)(F)F)cc(C(F)(F)F)c1)C(=O)c1c(-c2ccccc2)c2ccncc2c(=O)n1C` [Example 37, N-[3,5-Bis(trifluoromethyl)benzyl]-1,2-dihydro-N, 2-dimethyl-1-oxo-4-phenyl-3-pyrido[3,4-c]pyridinecarboxamide] came in with an IC50 of 0.62 nM.

`CN(Cc1cc(C(F)(F)F)cc(C(F)(F)F)c1)C(=O)c1c(-c2ccc(F)cc2)c2ncsc2c(=O)n1C` [Example 40, N-[3,5-Bis(trifluoromethyl)benzyl]-7-(4-fluorophenyl)-4,5-dihydro-N, 5-dimethyl-4-oxo-6-thiazolo[5,4-c]pyridinecarboxamide] registered an IC50 of 1.8 nM.

Consider `CN(Cc1cc(C(F)(F)F)cc(C(F)(F)F)c1)C(=O)c1c(-c2ccccc2)c2scnc2c(=O)n1C` [Example 43, N-[3,5-Bis(trifluoromethyl)benzyl]-4,5-dihydro-N, 5-dimethyl-4-oxo-7-phenyl-6-thiazolo[4,5-c]pyridinecarboxamide], for which the IC50 came to 1 nM.

These data come from patent publication US5585385A, “Heterocyclic compounds, their production and use as tachykinin reactor antagonists” (Takeda Chemical Industries, Ltd., priority 1993, dated 1996).
